In brackets after ≈: the same amount, converted by molar mass. Where two headings read alike, the source gives them in different places.
Experiments:
[1] = tested on: Escherichia coli; test: Microtiter plate dilution MIC, E. coli; type: cell-based; settings: for MIC: Escherichia coli, read-out: Minimum inhibitory concentration (MIC) E.c
Method: (§1) The microbial strains used in this study were Escherichia coli (ATCC 10798), Salmonella typhimurium (ATCC14028), Methicillin resistant Staphylococcus aureus (MRSA, Clinical isolate), Bacillus cereus (Toxigenic strain TS), and Candida albicans (ATCC 90028). Bacterial strains were stocked onto nutrient agar slant at 4 °C, and Candida albicans was stocked onto malt agar slant at 4 °C.
(§2) The microtiter plate dilution method was used to determine the MIC (minimum inhibitory concentration) of compounds under study. Sterile 96-well microplates (Nunc) were used for the assay. Stock compounds were dissolved in DMSO so that the final concentrations in micro wells were less than 1% DMSO and solvent controls were run at these concentrations. Positive controls of penicillin G and tetracycline (Oxoid, Hampshire, UK) were prepared at the following concentrations 2, 4, 8, 16, 31, 62.5, 125, and 250 μg/mL. 1% DMSO was used as a solvent control. Compounds were diluted to twice the desired initial test concentration (250 µg/mL) with Muller Hinton broth (MHB) (Oxoid). All wells, except the first were filled with MHB (50 μL). Compounds (100 μL) were added to the first well and serial two-fold dilutions were made down to the desired minimum concentration (2 μg/mL). An over-night culture of bacteria suspended in MHB was adjusted to turbidity equal to 0.5 McFarland standard. The plates were inoculated with bacterial suspension (50 μL/well) and incubated at 37 °C for 24 h. Then the turbidity was measured using micro-plate reader (Biotek) at 620 nm wavelength. The same procedure was used to determine the antifungal activity of compounds against Candida albicans. The medium used was malt extract broth. The yeast cells were suspended in 0.85% saline, with an optical density equivalent to 0.5 McFarland standard, and diluted 1:100 in malt extract broth to obtain the working concentration. After 24 h incubation with each compound, the turbidity was measured at 530 nm wavelength using a spectrophotometer (Biotek). Percentage inhibition for tested microorganisms was calculated using the following formula:
(§3) MIC was determined as the lowest concentration of the compound that causes complete inhibition (100%) of each microorganism.

[2] = tested on: Candida albicans; test: Microtiter plate dilution MIC, C. albicans; type: cell-based; settings: for Minimum inhibitory concentration (MIC) C.a: ATCC 90028, malt extract broth, 24 h, 100% inhibition
Method: as §1, §2, §3

[3] = tested on: Salmonella typhimurium; test: Microtiter plate dilution MIC, S. typhimurium; type: cell-based; settings: for MIC: Salmonella enterica, ATCC 14028 / TYPHIMURIUM, read-out: Minimum inhibitory concentration (MIC) S.t
Method: as §1, §2, §3

[4] = tested on: MCF-7 cells; test: MTT antiproliferative activity assay, MCF-7; type: cell-based, human; settings: for IC50 MCF-7: MTT, 48 h treatment, average of three replicates
Method: (§4) Hep-2 (larynx carcinoma, ATCC: CCL-23), MCF-7 (breast epithelial adenocarcinoma, ATCC: HTB-22), and Vero (African green monkey kidney, ATCC: CCL-81) cell lines were kindly provided by Dr. Mona Hassuneh (Department of Biological Sciences, University of Jordan). Cells were grown in Minimum Essential Medium Eagle (Gibco, Paisley UK) supplemented with 10% heat inactivated fetal bovine serum (Gibco, Paisley UK), 29 μg/mL L-glutamine, and 40 μg/mL gentamicin. Cells were incubated in a humidified atmosphere of 5% CO2 at 37 °C.
(§5) The antiproliferative activity of Inula viscosa compounds was measured using the MTT (3-(4,5-dimethylthiazol-2-yl)-2,5-diphenyltetrazolium bromide) assay (Promega, Madison, WI, USA). The assay detects the reduction of MTT by mitochondrial dehydrogenase to blue formazan product, which reflects the normal function of mitochondria and cell viability. Exponentially growing cells were washed and seeded at 17,000 cells/well for Hep-2 cell line and 11,000 cells/ well for MCF-7 cell line (in 200 μL of growth medium) in 96 well microplates (Nunc, Roskilde, Denmark). After 24 h incubation, a partial monolayer was formed then the media was removed and 200 μL of the medium containing the compound (initially dissolved in DMSO) were added and re-incubated for 48 h. Then 100 μL of the medium were aspirated and 15 μL of the MTT solution were added to the remaining medium (100 μL) in each well. After 4 h contact with the MTT solution, blue crystals were formed. One hundred μL of the stop solution were added and incubated further for 1 h.
(§6) Reduced MTT was assayed at 550 nm using a microplate reader (Biotek, Winooski, VT, USA). Control groups received the same amount of DMSO (0.1%).Untreated cells were used as a negative control while, cells treated with vincristine sulfate were used as a positive control. Eight concentrations (150, 100, 50, 20, 10, 5, 2, and 1 μg/mL) were prepared from each compound and tested against the three cell lines. IC50 values were calculated as the concentrations that show 50% inhibition of proliferation on any tested cell line. Stock solutions of the compounds were dissolved in (DMSO) then diluted with the medium and sterilized using 0.2 μm membrane filters. The toxicity of DMSO was determined and the final dilution of compounds used for treating the cells contained not more than 0.1% (non toxic concentration) DMSO. IC50 values were reported as the average of three replicates. The antiproliferative effect of the tested compounds was determined by comparing the optical density of the treated cells against the optical density of the control (cells treated with media containing 0.1% DMSO).

[5] = tested on: Vero cells; test: MTT antiproliferative activity assay, Vero; type: cell-based, African green monkey; settings: for IC50 Vero: MTT, 48 h treatment, average of three replicates
Method: as §4, §5, §6

[6] = tested on: Methicillin resistant Staphylococcus aureus (MRSA); test: Microtiter plate dilution MIC, MRSA; type: cell-based; settings: 24 h; for MIC: Staphylococcus aureus, MRSA, read-out: Minimum inhibitory concentration (MIC) MRSA
Method: as §1, §2, §3

[7] = tested on: Hep-2 cells; test: MTT antiproliferative activity assay, Hep-2; type: cell-based; settings: for IC50 Hep-2: MTT, 48 h treatment, average of three replicates
Method: as §4, §5, §6

[8] = tested on: Bacillus cereus; test: Microtiter plate dilution MIC, B. cereus; type: cell-based; settings: 24 h; for MIC: Bacillus cereus, read-out: Minimum inhibitory concentration (MIC) B.c
Method: as §1, §2, §3

[9] = ATCC 10798, 24 h, 100% inhibition
[10] = ATCC14028, 24 h, 100% inhibition
[11] = clinical isolate, 100% inhibition
[12] = Toxigenic strain TS, 100% inhibition
[13] = ATCC10798, ATCC 10798, 24 h, 100% inhibition

Molecule | Minimum inhibitory concentration (MIC) E.c [1, 9] | Minimum inhibitory concentration (MIC) C.a [2] | Minimum inhibitory concentration (MIC) S.t [3, 10] | IC50 MCF-7 [4] | IC50 Vero [5] | Minimum inhibitory concentration (MIC) MRSA [6, 11] | IC50 Hep-2 [7] | Minimum inhibitory concentration (MIC) B.c [8, 12] | other results
COc1c(O)cc2oc(-c3ccc(O)cc3)cc(=O)c2c1O [Hispidulin] |  |  |  |  |  |  |  |  | MIC ([1]; ATCC10798, 24 h): > 250 µg/mL; MIC ([2]; Candida albicans, ATCC90028, 24 h, read-out: Minimum inhibitory concentration (MIC) C.a): > 250 µg/mL; MIC ([3]; 24 h): > 250 µg/mL; IC50 ([4]; Homo sapiens, MCF7, 48 h, read-out: IC50 MCF-7): 10.3 ± 1.85 µg/mL (≈ 34.5 µM); IC50 ([5]; Chlorocebus sabaeus, Vero, 48 h, read-out: IC50 Vero): 105 ± 2.35 µg/mL (≈ 351 µM); MIC [6]: > 250 µg/mL; IC50 ([7]; Homo sapiens, HEp-2, 48 h, read-out: IC50 Hep-2): 19.5 ± 1.06 µg/mL (≈ 64.9 µM); MIC [8]: > 250 µg/mL
C=C1C[C@@H]2OC(=O)[C@@H](C)[C@H]2C[C@@H]2[C@@H]1CC[C@@]2(C)O [11α,13-Dihydroinuviscolide] | >250 µg/mL | >250 µg/mL | >250 µg/mL | >150 µg/mL | >150 µg/mL | >250 µg/mL | >150 µg/mL | >250 µg/mL | 
C=C(C(=O)O)[C@@H]1CC[C@@]2(C)CC[C@@H](O)C(=C)C2C1 (stereo partly shown) [Viscic acid] | >250 µg/mL | >250 µg/mL | >250 µg/mL | >150 µg/mL | >150 µg/mL | >250 µg/mL | >150 µg/mL | >250 µg/mL | 
C=C(C(=O)O)[C@@H]1CC[C@@]2(C)C[C@@H](O)C[C@@](C)(O)[C@@H]2C1 [2α-Hydroxyilicic acid] | >250 µg/mL | >250 µg/mL | >250 µg/mL | >150 µg/mL | >150 µg/mL | >250 µg/mL | >150 µg/mL | >250 µg/mL | 
Xepetin | >250 µg/mL | >250 µg/mL | >250 µg/mL | >150 µg/mL | >150 µg/mL | >250 µg/mL | >150 µg/mL | >250 µg/mL | 
COc1cc(O)c2c(c1)O[C@H](c1ccc(O)c(O)c1)[C@@H](OC(C)=O)C2=O [3-O-Acetylpadmatin] | >250 µg/mL | >250 µg/mL | >250 µg/mL | >150 µg/mL | >150 µg/mL | >250 µg/mL | >150 µg/mL | >250 µg/mL | 
2-Desacetoxyxanthinin | >250 µg/mL | >250 µg/mL | >250 µg/mL | >150 µg/mL | >150 µg/mL | >250 µg/mL | >150 µg/mL | >250 µg/mL | 
CC[C@H](CC[C@@H](C)[C@H]1CC[C@H]2[C@@H]3CC=C4C[C@@H](O[C@@H]5O[C@H](CO)[C@@H](O)[C@H](O)[C@H]5O)CC[C@]4(C)[C@H]3CC[C@]12C)C(C)C [β-Sitosteryl glucoside] | >250 µg/mL | >250 µg/mL | >250 µg/mL | >150 µg/mL | >150 µg/mL | >250 µg/mL | >150 µg/mL | >250 µg/mL | 
CC1(C)S[C@@H]2[C@H](NC(=O)Cc3ccccc3)C(=O)N2[C@H]1C(=O)O [Penicillin G, reference compound] |  |  |  |  |  |  |  |  | MIC [1, 13]: 125 µg/mL (≈ 374 µM); MIC [3, 10]: 125 µg/mL (≈ 374 µM); MIC [6, 11]: > 250 µg/mL; MIC [8, 12]: > 250 µg/mL
CN(C)[C@@H]1C(O)=C(C(N)=O)C(=O)[C@@]2(O)C(O)=C3C(=O)c4c(O)cccc4[C@@](C)(O)[C@H]3C[C@@H]12 [Tetracycline, reference compound] |  |  |  |  |  |  |  |  | MIC [1, 13]: 150 µg/mL (≈ 338 µM); MIC [3, 10]: 4 µg/mL (≈ 9 µM); MIC [6, 11]: 125 µg/mL (≈ 281 µM); MIC [8, 12]: 2 µg/mL (≈ 4.5 µM)
C[C@@H]1[C@H](O)[C@@H](C)/C=C/C=C/CC/C=C/C=C/C=C/C=C/C(O[C@H]2O[C@H](C)[C@@H](O)[C@H](N)[C@@H]2O)CC2O[C@](O)(CC(O)C(O)CCC(O)CC(O)CC(O)CC(=O)O[C@H]1C)CC(O)C2C(=O)O (stereo partly shown) [Nystatin, reference compound] |  | 25 µg/mL (≈ 27 µM) |  |  |  |  |  |  | 

Reference: paper PMC6268972, “Antiproliferative, Antimicrobial and Apoptosis Inducing Effects of Compounds Isolated from Inula viscosa” (Molecules, 2012)
